Results: ChEMBL document CHEMBL1145829, “Estrogen receptor modulators: identification and structure-activity relationships of potent ERalpha-selective tetrahydroisoquinoline ligands” (J Med Chem, 2003)

Legend:
[1] = system: MCF7; experiment: cells; conditions: Homo sapiens
[2] = target: T1, Estrogen receptor beta (Homo sapiens, UniProt Q92731)
[3] = target: T1, Estrogen receptor beta; remark: listed apart in the source
[4] = target: T2, Estrogen receptor (Homo sapiens, UniProt P03372)
T2 sequence (P03372 whole entry): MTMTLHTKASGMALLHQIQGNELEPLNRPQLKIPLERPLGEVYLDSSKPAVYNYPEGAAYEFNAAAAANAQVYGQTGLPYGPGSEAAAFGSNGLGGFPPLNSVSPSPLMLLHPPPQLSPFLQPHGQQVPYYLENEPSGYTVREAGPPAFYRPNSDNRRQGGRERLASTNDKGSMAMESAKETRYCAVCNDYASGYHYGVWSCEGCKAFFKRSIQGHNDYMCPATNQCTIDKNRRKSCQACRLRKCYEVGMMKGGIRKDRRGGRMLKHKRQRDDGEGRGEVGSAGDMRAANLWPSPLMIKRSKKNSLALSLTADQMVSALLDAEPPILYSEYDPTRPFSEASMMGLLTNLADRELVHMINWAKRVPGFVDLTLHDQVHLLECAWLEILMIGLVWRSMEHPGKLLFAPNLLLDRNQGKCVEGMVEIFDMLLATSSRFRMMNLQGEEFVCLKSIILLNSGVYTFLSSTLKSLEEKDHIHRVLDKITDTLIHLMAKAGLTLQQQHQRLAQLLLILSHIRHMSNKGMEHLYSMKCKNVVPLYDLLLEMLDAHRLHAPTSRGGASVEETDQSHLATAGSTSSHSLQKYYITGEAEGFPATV

[5] = system: MCF7
[6] = system: MCF7; experiment: cells; conditions: Homo sapiens; remark: listed apart in the source
[7] = target: T2, Estrogen receptor; remark: listed apart in the source
[8] = in vivo; conditions: rat, po, 5 mg/kg
[9] = Total clearance value was tested after peroral administration (5 mg/kg ) in conscious rat; format: ADME, organism-based; conditions: in vivo, po
[10] = Terminal half life was tested after peroral administration (5 mg/kg) in conscious rat; format: ADME, organism-based; conditions: in vivo, po
[11] = system: Rattus norvegicus; experiment: Maximal blood concentration after peroral administration (dose normalized) (5 mg/kg) in conscious rat; format: ADME, organism-based; set-up: dose 5 mg/kg, route oral; conditions: in vivo, po
[12] = system: MCF7; remark: listed apart in the source
[13] = target: T2, Estrogen receptor; experiment: Inhibition of estrogen receptor alpha mediated transcriptional activation

## CC(C)c1ccc(N2CCc3cc(O)ccc3C2(C)c2ccc(OCCN3CCCCC3)cc2)cc1 (centres undefined)
[1]
  IC50: 3.4 nM
[2]
  IC50: 4780 nM
[3]
  IC50: 3690 nM
[4]
  IC50: 71 nM
[5]
  Agonism: 14%
[6]
  EC50: < 0.1 nM

## CC(C)c1cccc(N2CCc3cc(O)ccc3C2(C)c2ccc(OCCN3CCCCC3)cc2)c1 (centres undefined)
[1]
  IC50: 27 nM
[2]
  IC50: 492 nM
[7]
  IC50: 16.1 nM
[3]
  IC50: 1100 nM
[4]
  IC50: 46 nM
[5]
  Agonism: 16%
[6]
  EC50: < 0.4 nM

## CC1(c2ccc(OCCN3CCCCC3)cc2)c2ccc(O)cc2CCN1c1cccc(O)c1 (centres undefined)
[1]
  IC50: 2 nM
[2]
  IC50: 47 nM
[3]
  IC50: 304 nM
[4]
  IC50: 34 nM
[5]
  Agonism: 10%
[6]
  EC50: < 0.1 nM

## CC1(c2ccc(OCCN3CCCC3)cc2)c2ccc(O)cc2CCN1c1ccc(Cl)cc1 (centres undefined)
[1]
  IC50: 6.2 nM
[2]
  IC50: 531 nM
[7]
  IC50: 3.3 nM
[3]
  IC50: 302 nM
[4]
  IC50: 27 nM
[5]
  Agonism: 10%
[6]
  EC50: < 0.1 nM

## CC1(c2ccc(OCCN3CCCCC3)cc2)c2ccc(O)cc2CCN1c1ccc(F)cc1 (centres undefined)
[2]
  IC50: 92 nM
[8]
  bioavailability: 56%
[3]
  IC50: 317 nM
[5]
  Agonism: 13%
[9]
  CL/F: 64.9 mL/min/kg
[10]
  half-life: 7.1 h
[11]
  Cmax: 16 nM

## Oc1ccc2c(c1)CCN(c1ccccc1)C2c1ccc(OCCN2CCCCC2)cc1 (centres undefined)
[12]
  EC50: < 0.15 pnM
[8]
  bioavailability: 42%
[9]
  CL/F: 51.9 mL/min/kg
[10]
  half-life: 3.5 h
[11]
  Cmax: 31 nM

## CN(C)c1cccc(N2CCc3cc(O)ccc3C2(C)c2ccc(OCCN3CCCCC3)cc2)c1 (centres undefined)
[1]
  IC50: 36 nM
[2]
  IC50: 2180 nM
[7]
  IC50: 19.8 nM
[3]
  IC50: 3110 nM
[4]
  IC50: 71 nM
[5]
  Agonism: 18%
[6]
  EC50: < 0.5 nM

## CC1(c2ccc(OCCN3CCCCC3)cc2)c2ccc(O)cc2CCN1c1ccccc1 (centres undefined)
[1]
  IC50: 4 nM
[2]
  IC50: 83 nM
[8]
  bioavailability: 23%
[3]
  IC50: 104 nM
[4]
  IC50: 29 nM
[5]
  Agonism: 13%
[9]
  CL/F: 116 mL/min/kg
[10]
  half-life: 5.2 h
[11]
  Cmax: 5.2 nM
[6]
  EC50: < 0.1 nM

## CC1(c2ccc(OCCN3CCCC3)cc2)c2ccc(O)cc2CCN1c1ccc(F)cc1 (centres undefined)
[1]
  IC50: 3.5 nM
[2]
  IC50: 82 nM
[8]
  bioavailability: 53%
[3]
  IC50: 204 nM
[4]
  IC50: 31 nM
[5]
  Agonism: 16%
[9]
  CL/F: 45.2 mL/min/kg
[10]
  half-life: 8.6 h
[11]
  Cmax: 20 nM
[6]
  EC50: < 0.1 nM

## CC1(c2ccc(OCCN3CCCCC3)cc2)c2ccc(O)cc2CCN1c1ccc(Cl)cc1 (centres undefined)
[1]
  IC50: 5.2 nM
[2]
  IC50: 552 nM
[3]
  IC50: 396 nM
[4]
  IC50: 35 nM
[5]
  Agonism: 8%
[6]
  EC50: < 0.1 nM

## CC1(c2ccc(OCCN3CCCCC3)cc2)c2ccc(O)cc2CCN1c1cccc(Cl)c1 (centres undefined)
[1]
  IC50: 8 nM
[2]
  IC50: 159 nM
[3]
  IC50: 284 nM
[4]
  IC50: 49 nM
[5]
  Agonism: 18%
[6]
  EC50: < 0.1 nM

## Oc1ccc2c(c1)CCN(c1ccccc1)C2c1ccc(F)cc1 (centres undefined)
[6]
  EC50: 1 nM

## Cc1ccc(N2CCc3cc(O)ccc3C2(C)c2ccc(OCCN3CCCCC3)cc2)cc1 (centres undefined)
[1]
  IC50: 4 nM
[2]
  IC50: 486 nM
[7]
  IC50: 2.9 nM
[3]
  IC50: 421 nM
[4]
  IC50: 28 nM
[5]
  Agonism: 9%
[6]
  EC50: < 0.1 nM

## Cl.Oc1ccc2c(c1)CC[C@H](c1ccccc1)[C@@H]2c1ccc(OCCN2CCCC2)cc1
[8]
  bioavailability: 38%
[9]
  CL/F: 55.7 mL/min/kg
[10]
  half-life: 5.2 h
[11]
  Cmax: 15.5 nM
[6]
  EC50: 0.02 nM

## CCC(=C(c1ccc(O)cc1)c1ccc(OCCN(C)C)cc1)c1ccccc1
[1]
  IC50: 8.5 nM
[5]
  Agonism: 31%
[6]
  EC50: 0.12 nM

## Oc1ccc2c(c1)CCN(c1ccccc1)C2c1ccc(OCCN2CCCC2)cc1 (centres undefined)
[1]
  IC50: 29 nM
[2]
  IC50: 291 nM
[7]
  IC50: 10.7 nM
[8]
  bioavailability: 73%
[3]
  IC50: 166 nM
[4]
  IC50: 21 nM
[5]
  Agonism: 34%
[9]
  CL/F: 55 mL/min/kg
[10]
  half-life: 3 h
[11]
  Cmax: 55 nM
[6]
  EC50: < 0.1 nM

## CC1(c2ccc(OCCN3CCCC3)cc2)c2ccc(O)cc2CCN1c1cccc(F)c1 (centres undefined)
[1]
  IC50: 3.8 nM
[2]
  IC50: 198 nM
[3]
  IC50: 123 nM
[4]
  IC50: 39 nM
[5]
  Agonism: 5%
[6]
  EC50: < 0.1 nM

## CC1(c2ccc(OCCN3CCCC3)cc2)c2ccc(O)cc2CCN1c1cccc(Cl)c1 (centres undefined)
[1]
  IC50: 7 nM
[2]
  IC50: 106 nM
[3]
  IC50: 272 nM
[4]
  IC50: 66 nM
[5]
  Agonism: 20%
[6]
  EC50: < 0.1 nM

## CN(C)c1cccc(N2CCc3cc(O)ccc3C2(C)c2ccc(OCCN3CCCC3)cc2)c1 (centres undefined)
[1]
  IC50: 32 nM
[2]
  IC50: 2970 nM
[7]
  IC50: 19 nM
[3]
  IC50: 2200 nM
[4]
  IC50: 94 nM
[5]
  Agonism: 19%
[6]
  EC50: < 0.5 nM

## Cc1ccc(N2CCc3cc(O)ccc3C2(C)c2ccc(OCCN3CCCC3)cc2)cc1 (centres undefined)
[1]
  IC50: 4.1 nM
[2]
  IC50: 448 nM
[3]
  IC50: 354 nM
[4]
  IC50: 31 nM
[5]
  Agonism: 14%
[13]
  IC50: 3.5 nM
[6]
  EC50: < 0.1 nM

## CC1(c2ccc(OCCN3CCCC3)cc2)c2ccc(O)cc2CCN1c1cccc(O)c1 (centres undefined)
[1]
  IC50: 2 nM
[2]
  IC50: 33 nM
[8]
  bioavailability: 15%
[3]
  IC50: 190 nM
[5]
  Agonism: 15%
[9]
  CL/F: 130 mL/min/kg
[10]
  half-life: 5.9 h
[11]
  Cmax: 5.3 nM
[6]
  EC50: < 0.5 nM

## CC1(c2ccc(OCCN3CCCCCC3)cc2)c2ccc(O)cc2CCN1c1ccccc1 (centres undefined)
[1]
  IC50: 6 nM
[2]
  IC50: 80 nM
[3]
  IC50: 200 nM
[4]
  IC50: 56 nM
[5]
  Agonism: 13%
[6]
  EC50: < 0.1 nM

## CC(C)c1ccc(N2CCc3cc(O)ccc3C2(C)c2ccc(OCCN3CCCC3)cc2)cc1 (centres undefined)
[1]
  IC50: 3.2 nM
[2]
  IC50: 4970 nM
[3]
  IC50: 1970 nM
[4]
  IC50: 44 nM
[5]
  Agonism: 10%
[6]
  EC50: < 0.1 nM

## CC1(c2ccc(OCCN3CCCC3)cc2)c2ccc(O)cc2CCN1c1ccccc1 (centres undefined)
[2]
  IC50: 83 nM
[3]
  IC50: 227 nM
[4]
  IC50: 38 nM

## Cl.O=C(c1ccc(OCCN2CCCCC2)cc1)c1c(-c2ccc(O)cc2)sc2cc(O)ccc12 [RALOXIFENE HYDROCHLORIDE]
[9]
  CL/F: 158 mL/min/kg
[10]
  half-life: 1.7 h
[11]
  Cmax: 7.5 nM
[6]
  EC50: 0.02 nM

## CC/C(=C(\c1ccccc1)c1ccc(OCCN(C)C)cc1)c1ccccc1 [TAMOXIFEN]
[6]
  EC50: 10 nM
